Legend:
[1] = biological target: T1, NL-hA1AR (Homo sapiens, UniProt P30542); assay: NanoBRET competition ligand-binding assay (CA200645 tracer), NL-hA1AR
T1 construct: expressed in transfected cells
T1 sequence (P30542 1-326): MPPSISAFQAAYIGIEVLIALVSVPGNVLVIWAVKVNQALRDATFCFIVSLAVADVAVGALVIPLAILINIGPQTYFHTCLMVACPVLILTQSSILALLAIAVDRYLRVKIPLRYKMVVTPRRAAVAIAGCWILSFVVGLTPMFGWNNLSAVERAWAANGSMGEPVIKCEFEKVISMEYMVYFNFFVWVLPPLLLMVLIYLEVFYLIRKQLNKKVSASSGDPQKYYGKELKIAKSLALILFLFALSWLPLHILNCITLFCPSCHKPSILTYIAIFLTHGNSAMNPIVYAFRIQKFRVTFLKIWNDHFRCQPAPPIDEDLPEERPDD

[2] = Fluorescence correlation spectroscopy in solution (HBSS); type: physicochemical
Protocol: The suitability of probe 11 for use with FCS was initially tested by recording 10 × 10 s trace reads in solution (100 nM in HBSS) (Figure S4). […] A 488 nm […] laser was used to excite SNAP-AF488 and the emission […] The pinhole diameter (1 Airy Unit; 1.1 μm optical slice), laser power and gain was kept constant in all the experiments. Images were acquired as 16-bit depth, 1024x1024 pixel resolution with a line averaging of 8 (or 2) and a pixel dwell time 4.12 µs (set to 5). Images were either processed in Zeiss ZEN 2 (blue edition) or FIJI (ImageJ) version 2.0.0 software, and linear adjustments to the brightness and contrast have been applied equally across all the images. To obtain membrane intensity values, regions of interest were drawn by hand around regions of cell membranes in FIJI (ImageJ)10 version 2.0.0 software. Fluorescence Correlation Spectroscopy. […] After that time, cells were washed 3x with warm HBSS over the course of 20 min, followed by the addition of 300 µL HBSS, left to cool to 24 OC and used in Fluorescence Correlation Spectroscopy (FCS) studies. […] For solution-based reads 10 x 10s trace measurements were taken within 200 µL sample with the confocal observation volume placed 200 µm above the coverslip. For apical membrane reads, 3 x 30s trace measurements at ~0.5 kW/cm2 laser power were taken on the apical membrane with its position determined as the peak of a point intensity S9 page 10: Z-scan utilising an argon 488 nm laser excitation, at ~0.5kW/cm2 laser power, detecting […] The placement was lowered by 0.2 µm to account for the optical chromatic offset between the 488 nm and 633 nm detection previously determined for our microscope set-up. Autocorrelation curves (AC) were constructed from fluorescence fluctuation traces and analysed within Zen Black (2012) software. […] Fluorescence fluctuation traces were reanalysed with Photon Counting Histogram analysis to determine the average molecular brightness of detected species. […]

SMILES	Ki ([1]; CA200645 (25 nM) tracer, HEK293T cells, mean ± SEM, read-out: affinity values pKi, NL-hA1AR (converted)) [nM]	greater affinity for NL-A1AR over NL-A2AAR (competition binding) ([1]; selectivity from pKi values) [fold]	greater affinity for NL-A1AR over NL-A2BAR (competition binding) ([1]; selectivity from pKi values) [fold]	greater affinity for NL-A1AR over NL-A3AR (competition binding) ([1]; selectivity from pKi values) [fold]	dwell time in solution (FCS, 3D diffusion model) ([2]; 100 nM in HBSS) [μs]	diffusion coefficient, D, in solution ([2]; 100 nM in HBSS, calibrated with Cy5) [μm^2/s]	PCH analysis, state in solution ([2]; 1-component fit, HBSS)
CCCCn1c(=O)c2[nH]c(C34CCC(C(=O)NCCNC(=O)CCNC(=O)c5ccc(OC(=O)CCC(=O)NCCOCCOCCNC(=O)O[C@H]6CC/C=C/CCC6)c(F)c5)(CC3)CC4)nc2n(CCCC)c1=O [Compound 12, 4-((3-((2-(4-(1,3-Dibutyl-2,6-dioxo-2,3,6,7-tetrahydro-1H-purin-8-yl)bicyclo[2.2.2]octane-1-carboxamido)ethyl)amino)-3-oxopropyl)carbamoyl)-2-fluorophenyl (R,E)-1-(Cyclooct-4-en-1-yloxy)-1,12-dioxo-5,8-dioxa-2,11-diazapentadecan-15-oate]	13.5	104	61	857	–	–	–
CCCCn1c(=O)c2[nH]c(C34CCC(C(=O)NCCNC(=O)CCNC(=O)c5ccc(OC(=O)CCCCC[N+]6=C(/C=C/C=C/C=C7/N(C)c8ccc(S(=O)(=O)O)cc8C7(C)C)C(C)(C)c7cc(S(=O)(=O)[O-])ccc76)c(F)c5)(CC3)CC4)nc2n(CCCC)c1=O [Compound 11, 1-(6-(4-((3-((2-(4-(1,3-Dibutyl-2,6-dioxo-2,3,6,7-tetrahydro-1H-purin-8-yl)bicyclo[2.2.2]octane-1-carboxamido)ethyl)amino)-3-oxopropyl)carbamoyl)-2-fluorophenoxy)-6-oxohexyl)-3,3-dimethyl-2-((1E,3E)-5-((E)-1,3,3-trimethyl-5-sulfoindolin-2-ylidene)penta-1,3-dien-1-yl)-3H-indol-1-ium-5-sulfonate]	–	–	–	–	117.6 ± 17.6	142.7 ± 17.3	single species with no aggregation
